Assay results as given in US11292792B2, “Tricyclic CRBN ligands and uses thereof” (Kymera Therapeutics, Inc., priority 2018, dated 2022).

Biological target: His-tagged CRBN-DDB1 complex (Homo sapiens (Human), UniProt Q96SW2)
Assay: Time-resolved fluorescence resonance energy transfer (TR-FRET) assay, displacement of Cy5-labeled thalidomide
Type: binding
Conditions: read-out: CRBN HTRF IC50
Method: Equal volumes of His-tagged CRBN-DDB1 complex (56 nM) was mixed with Eu-cryptate labeled Anti-6HIS-monoclonal antibody (50× dilution from the commercial stock solution, Vender: Cisbio, Cat. #61HI2KLA) in a final buffer containing 20 mM HEPES pH 7.0, 150 mM NaCl, 0.005% Tween-20. […] The mixture were incubated at room temperature for 1 hour. FRET signals were measured on an EnVision plate reader (Perkin Elmer) by exciting at 340 nm and recording emission at both 615 nm as no FRET control and 665 nm as the FRET signals with a 60 microsecond delay. FRET efficiency was calculated as the ratio of fluorescent signals at […]. Quantitative loss of FRET efficiency as a function of compound concentrations was fitted by a four-parameter Logistic Function using GraphPad Prism 7.0 and the IC50 values were reported for each compound.
The compound numbers correspond to the compound numbers in Table 1.

His-tagged CRBN-DDB1 complex, sequence (Q96SW2 whole entry): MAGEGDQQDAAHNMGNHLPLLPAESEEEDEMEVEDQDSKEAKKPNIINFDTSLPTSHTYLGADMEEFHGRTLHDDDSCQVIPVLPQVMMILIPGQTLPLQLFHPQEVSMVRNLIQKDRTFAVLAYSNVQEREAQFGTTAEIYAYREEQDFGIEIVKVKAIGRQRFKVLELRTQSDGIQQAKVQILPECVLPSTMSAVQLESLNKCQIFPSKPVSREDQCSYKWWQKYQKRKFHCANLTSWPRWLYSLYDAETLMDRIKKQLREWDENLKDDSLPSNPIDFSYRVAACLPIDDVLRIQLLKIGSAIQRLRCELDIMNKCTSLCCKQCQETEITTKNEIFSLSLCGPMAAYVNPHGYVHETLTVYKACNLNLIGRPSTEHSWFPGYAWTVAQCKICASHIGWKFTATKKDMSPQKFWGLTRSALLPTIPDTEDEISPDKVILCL
His-tagged CRBN-DDB1 complex, sequence (Q16531 whole entry partner): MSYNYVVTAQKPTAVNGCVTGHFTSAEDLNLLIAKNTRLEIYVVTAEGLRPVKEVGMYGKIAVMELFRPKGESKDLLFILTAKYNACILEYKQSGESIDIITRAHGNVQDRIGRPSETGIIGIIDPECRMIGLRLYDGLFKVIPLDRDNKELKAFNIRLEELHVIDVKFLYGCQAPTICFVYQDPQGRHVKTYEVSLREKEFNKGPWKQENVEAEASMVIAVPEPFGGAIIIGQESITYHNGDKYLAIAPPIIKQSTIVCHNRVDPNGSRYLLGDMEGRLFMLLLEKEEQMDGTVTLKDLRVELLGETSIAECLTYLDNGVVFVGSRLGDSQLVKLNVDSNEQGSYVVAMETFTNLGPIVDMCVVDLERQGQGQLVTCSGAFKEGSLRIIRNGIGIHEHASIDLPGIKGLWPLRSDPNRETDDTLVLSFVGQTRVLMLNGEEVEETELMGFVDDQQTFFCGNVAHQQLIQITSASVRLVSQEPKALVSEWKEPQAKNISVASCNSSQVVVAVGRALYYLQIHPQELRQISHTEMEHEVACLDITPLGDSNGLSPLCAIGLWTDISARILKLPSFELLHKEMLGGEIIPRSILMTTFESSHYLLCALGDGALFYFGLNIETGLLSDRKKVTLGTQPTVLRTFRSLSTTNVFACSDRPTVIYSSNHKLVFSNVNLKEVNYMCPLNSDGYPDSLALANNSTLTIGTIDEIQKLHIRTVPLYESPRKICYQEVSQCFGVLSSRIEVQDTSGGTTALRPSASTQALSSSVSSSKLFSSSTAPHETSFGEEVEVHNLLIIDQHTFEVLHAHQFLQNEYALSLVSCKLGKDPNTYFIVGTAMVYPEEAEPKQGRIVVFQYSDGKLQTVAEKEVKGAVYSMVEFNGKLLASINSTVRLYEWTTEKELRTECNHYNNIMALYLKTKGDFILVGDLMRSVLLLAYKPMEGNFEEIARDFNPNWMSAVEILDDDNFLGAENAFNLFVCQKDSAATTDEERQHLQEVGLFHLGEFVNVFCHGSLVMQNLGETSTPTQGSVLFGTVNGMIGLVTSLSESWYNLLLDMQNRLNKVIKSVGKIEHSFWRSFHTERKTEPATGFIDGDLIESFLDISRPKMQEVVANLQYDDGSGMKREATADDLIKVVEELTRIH

SMILES | IC50 [µM]
O=C1CCC(n2c3cccc(F)c3c3cccnc32)C(=O)N1 (stereo not drawn) [I-100] | < 10
O=C1CCC(n2c3cc(Br)ccc3c3cccnc32)C(=O)N1 (stereo not drawn) [I-102, 3-3-(7-Bromopyrido[2,3-b]indol-9-yl)piperidine-2,6-dione] | 10 to 30
O=C1CCC(n2c3ccccc3c3ccc(Cl)nc32)C(=O)N1 (stereo not drawn) [I-75] | < 10
CC(C)(C)OC(=O)NCCOCCOCCCc1ccc2c(c1)c1cccnc1n2C1CCC(=O)NC1=O (stereo not drawn) [I-62] | < 10
CNc1ccc2c(c1)c1cccnc1n2C1CCC(=O)NC1=O (stereo not drawn) [I-27, 3-(6-(methylamino)-9H-pyrido[2,3-b]indol-9-yl)piperidine-2,6-dione] | < 10
N#Cc1ccc2c3ccccc3n(C3CCC(=O)NC3=O)c2n1 (stereo not drawn) [I-81, 9-(2,6-dioxopiperidin-3-yl)-9H-pyrido[2,3-b]indole-2-carbonitrile] | 10 to 30
CC(C)(C)OC(=O)NCCOCCOCC(=O)NCc1ccc2c(c1)c1cccnc1n2C1CCC(=O)NC1=O (stereo not drawn) [I-36, tert-butyl (2-(2-(2-(((9-(2,6-dioxopiperidin-3-yl)-9H-pyrido[2,3-b]indol-6-yl)methyl)amino)-2-oxoethoxy)ethoxy)ethyl)carbamate] | < 10
Nc1cnc2c(c1)c1ccccc1n2C1CCC(=O)NC1=O (stereo not drawn) [I-39, 3-(3-amino-9H-pyrido[2,3-b]indol-9-yl)piperidine-2,6-dione] | < 10
CC(C)(C)OC(=O)NCCOCCNC(=O)NCc1ccc2c(c1)c1cccnc1n2C1CCC(=O)NC1=O (stereo not drawn) [I-37, tert-butyl (2-(2-(3-((9-(2,6-dioxopiperidin-3-yl)-9H-pyrido[2,3-b]indol-6-yl)methyl)ureido)ethoxy)ethyl)carbamate] | 10 to 30
O=C1CCC(n2c3ccccc3c3ccsc32)C(=O)N1 (stereo not drawn) [I-72] | < 10
O=C1CCC(n2c3c(c4cccnc42)CN(C(=O)CCCCCCCCO)CC3)C(=O)N1 (stereo not drawn) [I-68, 3-(6-(9-hydroxynonanoyl)-5,6,7,8-tetrahydro-9H-pyrrolo[2,3-b:4,5-c′]dipyridin-9-yl)piperidine-2,6-dione] | 30 to 100
COc1nccc2c3ccccc3n(C3CCC(=O)NC3=O)c12 (stereo not drawn) [I-65] | 30 to 100
O=C1CCC(n2c3ccccc3c3c(CCCOCCOCCO)ccnc32)C(=O)N1 (stereo not drawn) [I-48] | < 10
CC(C)(C)OC(=O)NCCOCCOCCCc1ccc2c3ccccc3n(C3CCC(=O)NC3=O)c2n1 (stereo not drawn) [I-73] | 10 to 30
O=C1CCC(n2c3ncccc3c3cccnc32)C(=O)N1 (stereo not drawn) [I-3, 3-(9H-pyrrolo[2,3-b:5,4-b′]dipyridin-9-yl)piperidine-2,6-dione] | 30 to 100
Nc1ccc2c(c1)c1cccnc1n2C1CCC(=O)NC1=O (stereo not drawn) [I-5, 3-(6-Amino-9H-pyrido[2,3-b]indol-9-yl)piperidine-2,6-dione] | < 10
CC(C)(C)OC(=O)N1CCN(CCc2ccc3c(c2)c2cccnc2n3C2CCC(=O)NC2=O)CC1 (stereo not drawn) [I-64, tert-butyl 4-(2-(9-(2,6-dioxopiperidin-3-yl)-9H-pyrido[2,3-b]indol-6-yl)ethyl)piperazine-1-carboxylate] | < 10
O=C1CCC(n2c3ccc(CCCOCCOCCO)cc3c3cccnc32)C(=O)N1 (stereo not drawn) [I-46] | < 10
O=C1CCC(n2c3c(c4cccnc42)CCCC3)C(=O)N1 (stereo not drawn) [I-70] | 10 to 30
O=C1CCC(n2c3ccccc3c3cnccc32)C(=O)N1 (stereo not drawn) [I-43] | 30 to 100

SMILES | IC50 [µM]
O=C1CCC(n2c3ccccc3c3ccc(F)nc32)C(=O)N1 (stereo not drawn) [I-84] | < 10
O=C1CCC(n2c3ccccc3c3ccc(C(F)(F)F)nc32)C(=O)N1 (stereo not drawn) [I-85] | 10 to 30
O=C1CCC(n2c3ccc(NCCOCCOCCOCc4ccccc4)cc3c3cccnc32)C(=O)N1 (stereo not drawn) [I-50] | < 10
CC(C)(C)OC(=O)NCCOCC#Cc1ccc2c(c1)c1cccnc1n2C1CCC(=O)NC1=O (stereo not drawn) [I-33, tert-Butyl (2-((3-(9-(2,6-dioxopiperidin-3-yl)-9H-pyrido[2,3-b]indol-6-yl)prop-2-yn-1-yl)oxy)ethyl)carbamate] | < 10
O=C1CCC(n2c3ccncc3c3cccnc32)C(=O)N1 (stereo not drawn) [I-56, 3-(9H-pyrrolo[2,3-b:4,5-c′]dipyridin-9-yl)piperidine-2,6-dione] | 10 to 30
NCc1ccc2c3ccccc3n(C3CCC(=O)NC3=O)c2n1 (stereo not drawn) [I-91, 3-(2-(aminomethyl)-9H-pyrido[2,3-b]indol-9-yl)piperidine-2,6-dione] | 30 to 100
CC(=O)Nc1ccc2c3ccccc3n(C3CCC(=O)NC3=O)c2n1 (stereo not drawn) [I-90, N-(9-(2,6-dioxopiperidin-3-yl)-9H-pyrido[2,3-b]indol-2-yl)acetamide] | 10 to 30
O=C1CCC(n2c3ccccc3c3ccc(O)nc32)C(=O)N1 (stereo not drawn) [I-83, 3-(2-hydroxy-9H-pyrido[2,3-b]indol-9-yl)piperidine-2,6-dione] | < 10
O=C1CCC(n2ccn3c4ccccc4nc23)C(=O)N1 (stereo not drawn) [I-94] | 30 to 100
O=C1CCC(n2c3cc(F)ccc3c3cccnc32)C(=O)N1 (stereo not drawn) [I-101] | < 10
CN(CCCOCCCc1ccc2c(c1)c1cccnc1n2C1CCC(=O)NC1=O)C(=O)OC(C)(C)C (stereo not drawn) [I-44] | < 10
COc1ccc2c3ccccc3n(C3CCC(=O)NC3=O)c2n1 (stereo not drawn) [I-82] | 10 to 30
CCOC(=O)Nc1ccc2c(c1)c1cccnc1n2C1CCC(=O)NC1=O (stereo not drawn) [I-29, ethyl (9-(2,6-dioxopiperidin-3-yl)-9H-pyrido[2,3-b]indol-6-yl)carbamate] | 10 to 30
CC(=O)Nc1ccc2c(c1)c1cccnc1n2C1CCC(=O)NC1=O (stereo not drawn) [I-8, N-(9-(2,6-Dioxopiperidin-3-yl)-9H-pyrido[2,3-b]indol-6-yl)acetamide] | < 10
O=C1CCC(n2c3ccccc3c3ncsc32)C(=O)N1 (stereo not drawn) [I-87] | < 10
O=C1CCC(n2c3ccccc3c3c(Cl)csc32)C(=O)N1 (stereo not drawn) [I-93, 3-(3-chloro-8H-thieno[2,3-b]indol-8-yl)piperidine-2,6-dione] | < 10
N#Cc1ccc2c(c1)c1cccnc1n2C1CCC(=O)NC1=O (stereo not drawn) [I-32] | 10 to 30
O=C1CCC(n2c3ccccc3c3c(Br)csc32)C(=O)N1 (stereo not drawn) [I-89, 3-(3-bromo-8H-thieno[2,3-b]indol-8-yl)piperidine-2,6-dione] | < 10
O=C1CCC(n2c3ccc(Br)cc3c3cccnc32)C(=O)N1 (stereo not drawn) [I-26, 3-(6-Bromo-9H-pyrido[2,3-b]indol-9-yl)piperidine-2,6-dione] | < 10
O=C1CCC(n2c3ccccc3c3c(Br)ccnc32)C(=O)N1 (stereo not drawn) [I-31] | < 10

SMILES | IC50 [µM]
CC(C)(C)OC(=O)NCCOCCOCC#Cc1ccc2c(c1)c1cccnc1n2C1CCC(=O)NC1=O (stereo not drawn) [I-63] | < 10
O=C1CCC(n2c3ccccc3c3cccnc32)C(=O)N1 (stereo not drawn) [I-2, 3-(9H-pyrido[2,3-b]indol-9-yl)piperidine-2,6-dione] | < 10
O=C1CCC(n2c3ccccc3c3ccncc32)C(=O)N1 (stereo not drawn) [I-42] | > 100
O=C1CCC(n2c3ccccc3c3scnc32)C(=O)N1 (stereo not drawn) [I-66] | 10 to 30
O=C1CCC(n2c3ccccc3c3ccccc32)C(=O)N1 (stereo not drawn) [I-1, 3-(9H-Carbazol-9-yl)piperidine-2,6-dione] | 10 to 30
O=C1CCC(n2c3ccc(C#CCOCCOCCOCc4ccccc4)cc3c3cccnc32)C(=O)N1 (stereo not drawn) [I-47] | < 10
O=C1CCC(n2c3c(c4cccnc42)CN(Cc2ccccc2)CC3)C(=O)N1 (stereo not drawn) [I-55, 3-(6-benzyl-7,8-dihydro-5H-pyrrolo[2,3-b:4,5-c′]dipyridin-9(6H)-yl)piperidine-2,6-dione] | 30 to 100
O=C1CCC(n2c3cc(CCCOCCOCCO)ccc3c3cccnc32)C(=O)N1 (stereo not drawn) [I-53] | 10 to 30
Cc1ccnc2c1c1ccccc1n2C1CCC(=O)NC1=O (stereo not drawn) [I-77, 3-(4-methyl-9H-pyrido[2,3-b]indol-9-yl)piperidine-2,6-dione] | < 10
N#Cc1ccnc2c1c1ccccc1n2C1CCC(=O)NC1=O (stereo not drawn) [I-76, 9-(2,6-dioxopiperidin-3-yl)-9H-pyrido[2,3-b]indole-4-carbonitrile] | < 10
CC(C)(C)OC(=O)NCCOCCOCCCc1ccc2c3cccnc3n(C3CCC(=O)NC3=O)c2c1 (stereo not drawn) [I-58] | 10 to 30
Cc1ccc2c3ccccc3n(C3CCC(=O)NC3=O)c2n1 (stereo not drawn) [I-86, 3-(2-methyl-9H-pyrido[2,3-b]indol-9-yl)piperidine-2,6-dione] | < 10
CN(CCCOCC#Cc1ccc2c(c1)c1cccnc1n2C1CCC(=O)NC1=O)C(=O)OC(C)(C)C (stereo not drawn) [I-45] | 10 to 30
CC(C)(C)OC(=O)N1CCc2c(c3cccnc3n2C2CCC(=O)NC2=O)C1 (stereo not drawn) [I-40, tert-butyl 9-(2,6-dioxopiperidin-3-yl)-7,8-dihydro-5H-pyrrolo[2,3-b:4,5-c′]dipyridine-6(9H)-carboxylate] | 10 to 30
CN(C)c1ccc2c3ccccc3n(C3CCC(=O)NC3=O)c2n1 (stereo not drawn) [I-80, 3-(2-(dimethylamino)-9H-pyrido[2,3-b]indol-9-yl)piperidine-2,6-dione] | 10 to 30
CC(C)(C)OC(=O)NCCOCCOCCCc1ccnc2c1c1ccccc1n2C1CCC(=O)NC1=O (stereo not drawn) [I-57] | < 10
O=C1CCC(n2c3cccc(CCCOCCOCCO)c3c3cccnc32)C(=O)N1 (stereo not drawn) [I-51] | < 10
O=C1CCC(n2c3ccccc3c3c(C#CCOCCOCCOCc4ccccc4)ccnc32)C(=O)N1 (stereo not drawn) [I-49] | < 10
CC(C)(C)OC(=O)NCCOCCOCCNc1ccc2c(c1)c1cccnc1n2C1CCC(=O)NC1=O (stereo not drawn) [I-35, tert-butyl (2-(2-(2-((9-(2,6-dioxopiperidin-3-yl)-9H-pyrido[2,3-b]indol-6-yl)amino)ethoxy)ethoxy)ethyl)carbamate] | < 10
O=C1CCC(n2c3cccc(Br)c3c3ccsc32)C(=O)N1 (stereo not drawn) [I-103, 3-(4-bromo-8H-thieno[2,3-b]indol-8-yl)piperidine-2,6-dione] | < 10
